Like-named read-outs stand apart in the source and are kept apart here. Starred links: 1 amine or outer side, 2 acyl side, 3 side chain; linkers in the order of their positions; H or OH if unused. Positions of bridges follow the written chain, without caps; N, C: chain ends. Residues, ends and D or L forms follow the SMILES beside them. *: point of attachment. TBMB = c1c(C[*:1])cc(C[*:3])cc1C[*:2]; X1 = [N-]=[N+]=NCCOCCOCCOCC(=O)*
Tests used:
p53 = p53 expression level assay (western blot); assay type: cell-based; conditions: U2OS cells, 10 µM, 24 h, p53 vs alpha tubulin, two biological replicates
Text: Encouraged by the promising results from the pulldown experiment, and in order to get insight into bioactivity and possible mode of action, we analyzed peptide 33 in a morphological cell painting assay. The cell painting assay is a target agnostic assay which determines a cells morphological profile after treatment with a compound of interest and compares it to the profiles of a set of reference compounds. ^[22] By identifying reference compounds with a similar profile a hypothesis of the compounds mode of action can be generated based on their annotated targets. ^[23] U2OS cells were treated with our compound and 579 parameters were analyzed. […] We therefore synthesized a variant modified with an N‐terminal TAT sequence to enhance its permeability (compound 49, see Table 1 and Supplemental Figure 4). ^[24] […] Applying compound 49 to the cell painting assay led to an induction of 5.9 % and the corresponding profile was compared to the set of 3000 reference compounds. […] To validate this hypothesis, we exposed U2OS cells to compound 49 and evaluated the levels of p53 by Western blot. […]
U2OS cells were incubated with 10 µM compound 49, 50 or DMSO (DMSO 0.5%) for 24 h followed by lysis for western blotting analysis. p53 ex pression was monitored using fluorescent antibody. Signal ration between p53 and loading control (alpha tubulin) was measured. […]

U2OS cells = experiment: Morphological cell painting assay; assay type: cell-based; conditions: U2OS cells, 20 h, 579 parameters, fraction of significantly changed parameters vs DMSO; 10, 3 or 1 µM
Text: Encouraged by the promising results from the pulldown experiment, and in order to get insight into bioactivity and possible mode of action, we analyzed peptide 33 in a morphological cell painting assay. The cell painting assay is a target agnostic assay which determines a cells morphological profile after treatment with a compound of interest and compares it to the profiles of a set of reference compounds. ^[22] By identifying reference compounds with a similar profile a hypothesis of the compounds mode of action can be generated based on their annotated targets. ^[23] U2OS cells were treated with our compound and 579 parameters were analyzed. […] We therefore synthesized a variant modified with an N‐terminal TAT sequence to enhance its permeability (compound 49, see Table 1 and Supplemental Figure 4). ^[24] […] Applying compound 49 to the cell painting assay led to an induction of 5.9 % and the corresponding profile was compared to the set of 3000 reference compounds. […] To validate this hypothesis, we exposed U2OS cells to compound 49 and evaluated the levels of p53 by Western blot. […] The exact mechanism by which the compounds elevate levels of p53 requires further investigation. However, it has previously been shown that the NuRD complex, of which RbAp48 is a core component, is able to deacetylate p53 and thereby modulate its stability. ^[26] The effect is mediated by the MTA family of proteins from which the compounds described here are derived. […]
The described assay follows closely the method described by Bray et al. Initially, 5 µl U2OS medium were added to each well of a 384 -well plate (PerkinElmer CellCarrier -384 Ultra). Subsequently, U2OS cell were seeded with a density of 1600 cells per well in 20 µl medium. The plate was incubated for 10 min at the ambient temperatu re, followed by an a dditional 4 h incubation (37 °C, 5 % CO2). Compound treatment was performed with the Echo 520 acoustic dispenser (Labcyte) at final concentrations of 10 µM, 3 µM or 1 µM. Incubation with compound was performed for 20 h (37 °C, 5 % CO2). Subsequently, mitoc hondria were stained with Mito Tracker Deep Red (Thermo Fisher Scientific, Cat. No. M22426). The Mito Tracker Deep Red stock solution (1 mM) was diluted to a final concentration of 100 nM in prewarmed medium. The medium was removed fr om the plate leaving 1 0 µl residual volume and 25 µl of the Mito Tracker solution were added to each well. 22 The plate was incubated for 30 min in darkness (37 °C, 5 % CO2). To fix the cells 7 µl of 18.5 % formaldehyde in PBS were added, resulting in a fi nal formaldehyde conce ntration of 3.7 %. Subsequently, the plate was incubated for another 20 min in darkness (RT) and washed three times with 70 µl of PBS. (Biotek Washer Elx405). Cells were permeabilized by addition of 25 µl 0.1 % Triton X -100 to each well, followed by 15 min incubation (RT) in darkness. The cells were washed three times with PBS leaving a final volume of 10 µl. To each well 25 µl of a staining solution were added, which contains 1 % BSA, 5 µl/mL Phalloidin (Thermo Fisher Scientific, A123 81), 25 µg/ml Concanav alin A (Thermo Fisher Scientific, Cat. […]
conjugate (Thermo Fisher Scientific, Cat. No. W11262) and […] SYTO 14 solution (Thermo Fisher Scientific, Cat. No. S7576). The plate is incubated for 30 min (RT) in darkness and washed three times with 70 µl PBS. After the final washing step the PBS was not aspirated. The plates were sealed and centrifuged for 1 min at 500 rpm.
The plates were prepare d in triplicates with shifted layouts to reduce plate effects and imaged using a Micro XL High-Content Screening System (Molecular Devices) in 5 channels (DAPI: Ex350 -400/ Em410- […]
The generated images were processed with the CellProfiler package (https://cellprofiler.org/, version 3.0.0) on a computing cluster of the Max Planck Society to extract 1716 cell features (parameters) per microscope site. The data was then further aggregated as medians per well (9 sites -> 1 well), then […]

RbAp48 [1] = biological target: T1, RbAp48 (Homo sapiens, UniProt Q09028); experiment: Competitive fluorescence polarization (FP) assay using complex of peptide 1 and RbAp48; assay type: binding; parameters: Full length RbAp48 was cloned; His tag followed by 3C cleavage site (N, cleaved yes); made in house; host or cells: Sf9 insect cells
Procedure, shortened: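 Sf9-expressed full-length RbAp48 (tag cleaved), 15 nM, displaced from 1 nM fluorescent peptide tracer in 20 mM Tris-HCl pH 7.5, 150 mM NaCl, 0.01% Tween-20. Read by FP (ex 485/em 535 nm) after 30 min at room temperature.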

RbAp48 [2] = biological target: T1, RbAp48; experiment: Pull-down with peptides immobilized on DBCO beads from MDA-MB-231 nuclear lysate; assay type: binding; parameters: RbAp48 was pulled down from nuclear lysate of MDA‐MB‐231 cells; endogenous in cells; host or cells: MDA-MB-231 nuclear lysate; conditions: 60 µM probe immobilized on DBCO beads, 1.5 h at 4°C, immunoblot
Experimental: To evaluate whether peptide 33 interacts with RbAp48 in a more complex biological environment we modified the N‐terminus with a linker bearing a terminal azide (47, see Table 1, supplemental Figure 4). The peptides were immobilized on DBCO‐beads via copper‐free click chemistry and exposed to MDA‐MB‐231 nuclear lysate. As a negative control an azide modified scrambled peptide sequence (48) with affinity >10 μM was used.
Nuclear lysate of MDA-MB-231 cells was prepared using a Subcellular Protein Fractionation Kit (Thermo Scientific) according to the manufacturer’s instructions. DBCO agarose beads (100 µl) were washed with buffer A ( 50 mM Tris-HCl, 150 mM NaCl, 1 mM DTT, 1% (v/v) Triton X -100, pH 7.4, cOmplete™ EDTA-free Protease Inhibitor Cocktail ) three times. The beads were incubated overnight at 4°C in a solution containing either 47, 48 or no probe (500 µl containing 60 µM probe). After immobilization, the beads were washed again with buffer A three times followed by incubation with the nuclear lysate (500 µl) and incubated for 1.5 h at 4°C. After incubat ion beads were washe d with buffer B (50 mM Tris-HCl, 500 mM NaCl, 1 mM DTT, 1% (v/v) Triton X -100, pH 7.4, cOmplete™ EDTA - free Protease Inhibitor Cocktail ) three times. Protein was eluted by adding SDS sample buffer and loaded the mixture directly on SDS -page gel for analysis. […]

[3] = Table 1, competitive FP, tracer peptide 1 1 nM, RbAp48 15 nM, 20 mM Tris-HCl, 150 mM NaCl, 0.01% Tween-20, pH 7.5, 30 min room temperature, lower limit set by 15 nM protein, read-out: IC50

T1 sequence (Q09028 whole entry): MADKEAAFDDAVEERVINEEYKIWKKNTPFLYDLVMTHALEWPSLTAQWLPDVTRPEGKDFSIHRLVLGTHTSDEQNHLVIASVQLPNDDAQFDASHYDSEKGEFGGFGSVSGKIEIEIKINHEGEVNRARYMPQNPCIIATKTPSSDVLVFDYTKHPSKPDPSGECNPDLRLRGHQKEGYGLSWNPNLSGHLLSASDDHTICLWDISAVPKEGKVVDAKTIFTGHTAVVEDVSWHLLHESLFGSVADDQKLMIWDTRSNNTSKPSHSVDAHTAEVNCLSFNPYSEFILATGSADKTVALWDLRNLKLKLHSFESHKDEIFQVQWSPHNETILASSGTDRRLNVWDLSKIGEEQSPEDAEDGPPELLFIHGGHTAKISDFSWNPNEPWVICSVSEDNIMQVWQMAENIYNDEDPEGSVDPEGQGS

| enrichment of RbAp48 in pull-down (RbAp48 [2]) | IC50 (RbAp48 [1]; competitive FP assay, read-out: IC50 / affinity) [nM] | Structure (SMILES) | levels of p53 (p53) | induction (U2OS cells) [%] | IC50 (RbAp48 [1]; [3]) [nM] | FP activity in words (RbAp48 [1]; competitive FP assay) |
| --- | --- | --- | --- | --- | --- | --- |
|  |  | C[C@H](NC(=O)[C@@H]1CSCc2cc3cc(c2)CSC[C@H](NC(=O)[C@H](CCCNC(=N)N)NC(=O)[C@H](CCCCN)NC(=O)[C@H]([C@@H](C)O)NC(=O)[C@@H](NC(=O)CNC(=O)[C@H](CCC(N)=O)NC(=O)[C@@H]2CCCN2C(=O)[C@H](CCCNC(=N)N)NC(=O)[C@H](CCCNC(=N)N)NC(=O)[C@H](CCCNC(=N)N)NC(=O)[C@H](CCC(N)=O)NC(=O)[C@H](CCCNC(=N)N)NC(=O)[C@H](CCCNC(=N)N)NC(=O)[C@H](CCCCN)NC(=O)[C@H](CCCCN)NC(=O)[C@H](CCCNC(=N)N)NC(=O)CN)CSC3)C(=O)N[C@@H](C)C(=O)N[C@@H](CCCNC(=N)N)C(=O)N[C@@H](CCCNC(=N)N)C(=O)N2CCC[C@H]2C(=O)N[C@@H](Cc2ccc(O)cc2)C(=O)N[C@@H](CCCCN)C(=O)N2CCC[C@H]2C(=O)N1)C(N)=O [Peptide 49] (H-GRKKRRQRRRPQGCTKRCARRPYKPCA-NH2; linker 14-18-26 via TBMB) | increased | 5.9 | 4.4 ± 1.4 | slightly more active than its parent compound 33 |
|  |  | N=C(N)NCCC[C@H](NC(=O)CN)C(=O)N[C@@H](CCCCN)C(=O)N[C@@H](CCCCN)C(=O)N[C@@H](CCCNC(=N)N)C(=O)N[C@@H](CCCNC(=N)N)C(=O)N[C@@H](CCC(N)=O)C(=O)N[C@@H](CCCNC(=N)N)C(=O)N[C@@H](CCCNC(=N)N)C(=O)N[C@@H](CCCNC(=N)N)C(=O)N1CCC[C@H]1C(=O)N[C@@H](CCC(N)=O)C(N)=O [Peptide 50, reference compound] | no increase |  | 1240 ± 358 | weakly inhibit the interaction |
| successfully able to enrich RbAp48 |  | C[C@H](NC(=O)[C@@H]1CSCc2cc3cc(c2)CSC[C@H](NC(=O)[C@H](CCCNC(=N)N)NC(=O)[C@H](CCCCN)NC(=O)[C@H]([C@@H](C)O)NC(=O)[C@@H](NC(=O)COCCOCCOCCN=[N+]=[N-])CSC3)C(=O)N[C@@H](C)C(=O)N[C@@H](CCCNC(=N)N)C(=O)N[C@@H](CCCNC(=N)N)C(=O)N2CCC[C@H]2C(=O)N[C@@H](Cc2ccc(O)cc2)C(=O)N[C@@H](CCCCN)C(=O)N2CCC[C@H]2C(=O)N1)C(N)=O [Peptide 47] (X1-CTKRCARRPYKPCA-NH2; linker 1-5-13 via TBMB; N-terminus assumed) |  |  | 13.9 ± 5.6 |  |
| no interaction | > 10000 | C[C@@H]1NC(=O)[C@H](CCCNC(=N)N)NC(=O)[C@@H]2CCCN2C(=O)[C@@H](NC(=O)COCCOCCOCCN=[N+]=[N-])CSCc2cc3cc(c2)CSC[C@@H](C(=O)N[C@@H](CCCCN)C(N)=O)NC(=O)[C@H](CCCNC(=N)N)NC(=O)[C@@H]2CCCN2C(=O)[C@H](C)NC(=O)[C@H]([C@@H](C)O)NC(=O)[C@H](CCCCN)NC(=O)[C@H](Cc2ccc(O)cc2)NC(=O)[C@H](CCCNC(=N)N)NC(=O)[C@H](CSC3)NC1=O [Peptide 48] (X1-CPRACRYKTAPRCK-NH2; linker 1-5-13 via TBMB; N-terminus assumed) |  |  | > 10000 |  |

From publication PMC7894522, “Structure Based Design of Bicyclic Peptide Inhibitors of RbAp48” (Angewandte Chemie (International Ed. in English), 2020)
